# In patent publication US20070191311A1, “P2x receptor inhibitor” (priority 2004, published 2007):
# pIC50: −log10 of the molar value.
# What was measured:
# [1] = in vivo; cited from earlier work
# rat type P2X2/3 receptor = target: T1, rat type P2X2/3 receptor (Rattus norvegicus, UniProt P49653+P49654); test: P2X2/3 receptor inhibitory activity ([14C]-guanidine uptake stimulated by αβ-me ATP in CHO cells); type: cell-based; details: for pIC50: CHO cell expressing rat type P2X2/3 receptor, 4 μM αβ-me ATP, [14C]-guanidine, 15 minutes room temperature, read-out: IC50 (concentration which inhibits 50% of the function of P2X2/3 receptor); for P2X2/3,3 receptor inhibitory activity (in words): Table 1
# T1 construct: expressed in transfected cells; host or cells: CHO cells (selected with G-418)
# T1 sequence (P49653 1-472): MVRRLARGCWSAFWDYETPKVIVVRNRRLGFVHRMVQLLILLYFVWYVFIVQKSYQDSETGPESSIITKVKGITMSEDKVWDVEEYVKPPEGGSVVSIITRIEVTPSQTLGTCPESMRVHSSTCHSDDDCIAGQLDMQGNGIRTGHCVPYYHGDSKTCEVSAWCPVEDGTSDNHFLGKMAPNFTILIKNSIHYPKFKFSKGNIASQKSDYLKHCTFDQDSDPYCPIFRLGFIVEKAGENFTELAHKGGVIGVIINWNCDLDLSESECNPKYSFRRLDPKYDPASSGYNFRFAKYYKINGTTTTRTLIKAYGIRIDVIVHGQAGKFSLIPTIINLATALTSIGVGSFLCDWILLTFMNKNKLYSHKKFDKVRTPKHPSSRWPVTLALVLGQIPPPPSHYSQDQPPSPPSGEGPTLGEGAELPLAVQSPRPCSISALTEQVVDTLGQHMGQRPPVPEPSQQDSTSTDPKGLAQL
# T1 sequence (P49654 1-397): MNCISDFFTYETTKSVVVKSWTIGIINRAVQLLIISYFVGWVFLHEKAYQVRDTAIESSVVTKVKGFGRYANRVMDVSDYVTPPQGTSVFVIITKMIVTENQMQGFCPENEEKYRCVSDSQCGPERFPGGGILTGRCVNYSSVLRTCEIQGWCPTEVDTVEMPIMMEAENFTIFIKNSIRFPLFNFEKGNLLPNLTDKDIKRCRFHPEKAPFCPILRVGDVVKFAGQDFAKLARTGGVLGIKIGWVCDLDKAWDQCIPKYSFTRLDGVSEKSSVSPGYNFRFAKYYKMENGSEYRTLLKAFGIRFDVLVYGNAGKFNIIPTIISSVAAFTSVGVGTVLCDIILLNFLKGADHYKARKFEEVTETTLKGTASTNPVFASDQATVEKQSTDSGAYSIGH
# Method: On the day before the test, the resulting cells were inoculated onto a 96-well culture plate at a density of about 6×10^4 cells/well and cultured for 24 hours in the medium containing 2 units/ml of apyrase 2.
# mouse = test: Formalin induced pain behavior; type: in vivo
# Method: The test substance or solvent was subcutaneously administered to each mouse at a volume of 10 ml/kg. After 30 minutes thereof, formalin was administered under the skin of one sole (2.0%, 20 μl/body). Total time of lifting (a behavior of lifting the administered side sole from the floor face) and licking (a behavior of licking and biting the administered side sole) occurred during every 5 minutes was measured over 30 minutes starting just after the administration of formalin. By defining the period of from 0 to 5 minutes after the formalin administration as a phase I (Phase I), and that of from 10 to 30 minutes as a phase II (Phase II), the total time of lifting and licking occurred in each phase was calculated.
# [2] = system: patients of multiple myeloma; details: oral 6 mg once a day; 24 weeks; cited from earlier work
# mice [3] = test: Acetic acid induced pain behavior (writhing); type: in vivo
# Method: This test was carried out with reference to the method described in Pain, 96, p. […] After 30 minutes thereof, 0.6% acetic acid was intraperitoneally administered (10 ml/kg). Frequency of writhing (a body writhing behavior) occurred within a period of 15 minutes, starting from 2 minutes after the acetic acid administration until 17 minutes thereafter, was measured. The test was carried out twice as the test 1 and test 2. Test on the statistical significant difference between the solvent administration group used as a control group and the test substance administration group was carried out using the Dunnett method.
# mice [4] = test: αβ-me ATP induced pain behavior; type: in vivo; details: for αβ-me ATP induced pain behavior (total time of lifting and licking): 30 minutes before αβ-me ATP, significant difference to control
# Method: 16 (2000). […] Total time of lifting (a behavior of lifting the administered side sole from the floor face) and licking (a behavior of licking and biting the administered side sole) occurred during 5 minutes just after the administration of αβ-me ATP was measured. […] Test on the statistical significant difference between the solvent administration group used as a control group and the test substance administration group was carried out using the Dunnett method.
# [5] = system: patients of bone metastasis of breast cancer and bone metastasis of lung cancer; test: Clinical test in patients of bone metastasis of breast cancer and lung cancer; type: in vivo, human; details: 1 or 2 mg once in 2 weeks for 12 weeks; from the initial evaluation time (1st week)
# cancer patients = details: clinical test; cited from earlier work
# rat cancer pain model = details: continuously administered for 19 days; cited from earlier work
compound,measurement,setting,value
O=P(O)(O)C(Cl)(Cl)P(=O)(O)O [clodronate],analgesic action in the tail-flick test,[1],dose-dependent analgesic action
same,pIC50,rat type P2X2/3 receptor,< 3.52
same,"P2X2/3,3 receptor inhibitory activity (in words)",rat type P2X2/3 receptor,"did not show the P2X2/3,3 receptor inhibitory activity"
O=P(O)(O)C(O)(Cc1cnc2ccccn12)P(=O)(O)O [minodronic acid hydrate],"formalin induced pain behavior, Phase I (0 to 5 minutes)",mouse; 30 mg/kg s.c.,did not exert influence
same,"formalin induced pain behavior, Phase II (10 to 30 minutes)",mouse; 30 mg/kg s.c.,suppressed
same,behavioral side effect at the time of the pain behavior observation,mouse; formalin test,not observed
same,bone pain in multiple myeloma patients,[2],improved
same,used amount of an analgesic in multiple myeloma patients,[2],reduced
"O=P(O)(O)C(O)(Cc1cnc2ccccn12)P(=O)(O)O [minodronic acid, 1-hydroxy-2-(imidazo[1,2-a]pyridin-3-yl)ethane-1,1-bisphosphonic acid]",behavioral side effect at the time of the pain behavior observation,mice [3]; acetic acid test,not observed
same,writhing behavior (acetic acid induced),"mice [3]; s.c., 10 and 30 mg/kg, 0.6% acetic acid i.p.",dose-dependently suppressed
same,αβ-me ATP induced pain behavior (total time of lifting and licking),mice [4]; 30 mg/kg i.p.,suppressed
same,αβ-me ATP induced pain behavior (total time of lifting and licking),mice [4]; 10 to 50 mg/kg s.c.,suppressed
same,behavioral side effect at the time of the pain behavior observation,mice [4]; αβ-me ATP test,not observed
same,pain value (bone pain) in patients,[5],reducing tendency of pain value was observed
same,"P2X2/3,3 receptor inhibitory activity (in words)",rat type P2X2/3 receptor,good receptor inhibitory activity
NCCC(O)(P(=O)(O)O)P(=O)(O)O [pamidronate],analgesic action in the tail-flick test,[1],dose-dependent analgesic action
same,pIC50,rat type P2X2/3 receptor,< 3.52
same,"P2X2/3,3 receptor inhibitory activity (in words)",rat type P2X2/3 receptor,"did not show the P2X2/3,3 receptor inhibitory activity"
Cc1ccc(C(=O)Nc2ccc(S(=O)(=O)O)c3cc(S(=O)(=O)O)cc(S(=O)(=O)O)c23)cc1NC(=O)c1cccc(NC(=O)Nc2cccc(C(=O)Nc3cc(C(=O)Nc4ccc(S(=O)(=O)O)c5cc(S(=O)(=O)O)cc(S(=O)(=O)O)c45)ccc3C)c2)c1 [suramin],pain score in cancer patients,cancer patients,reduction of pain score was observed
same,pIC50,rat type P2X2/3 receptor,3.71
O=P(O)(O)C(O)(Cn1ccnc1)P(=O)(O)O [zoledronate],mechanical allodynia and mechanical hyperalgesia accompanied by cancer pain,rat cancer pain model,inhibit
same,pIC50,rat type P2X2/3 receptor,< 3.52
same,"P2X2/3,3 receptor inhibitory activity (in words)",rat type P2X2/3 receptor,"did not show the P2X2/3,3 receptor inhibitory activity"
trinitrophenyl (TNP)-ATP [TNP-ATP],pIC50,rat type P2X2/3 receptor,6.74
